From patent US20070128217A1 (priority 2003, published 2007)

Tests used:
[1] = test system: control sera (pooled serum of ten healthy LUMC hospital workers; commercial negative donor pooled serum from the Dutch bloodbank); assay type: binding, human; parameters: Binding of Control serum LUMC to linear peptides / Binding of Control serum Blood-bank to linear peptides / Binding of Control serum LUMC to looped peptides / Binding of Control Serum Blood-Bank to Looped peptides / Binding of Control serum LUMC to linear peptides of the protein M of SARS-CoV Urbani / Binding of Control serum Blood-bank to linear peptides of the protein M of SARS-CoV Urbani / Binding of Control serum LUMC to looped peptides of the protein M of SARS-CoV Urbani / Binding of Control Serum Blood-Bank to Looped peptides of the protein M of SARS-CoV Urbani: unit not given here
[2] = test system: antibodies in sera from SARS patients (sera 1a, 1b, 2, 6, 37, 62, London, SARS-yellow, SARS-green); assay type: binding, human; parameters: Binding of serum 6 to linear peptides of protein X1 of SARS-CoV Urbani / Binding of serum 37 to linear peptides of protein X1 of SARS-CoV Urbani / Binding of serum 6 to looped/cyclic peptide (PEPSCAN-ELISA) / Binding of serum 37 to looped/cyclic peptide (PEPSCAN-ELISA) / Binding of serum 37 to looped/cyclic peptides of protein X1 of SARS-CoV Urbani / Binding of serum 6 to linear peptides of protein X2 / Binding of serum 37 to linear peptides of protein X2 / Binding of serum 37 to looped/cyclic peptides of protein X2 of SARS-CoV Urbani / Binding of serum 6 to linear peptides of protein M of SARS-CoV Urbani / Binding of serum 37 to linear peptides of protein M of SARS-CoV Urbani / Binding of serum 6 to looped/cyclic peptides of protein M of SARS-CoV Urbani / Binding of serum 37 to looped/cyclic peptides of protein M of SARS-CoV Urbani / Binding of serum 6 to linear peptides of protein X3 of SARS-CoV Urbani / Binding of serum 37 to linear peptides of protein X3 of SARS-CoV Urbani / Binding of serum 37 to looped/cyclic peptides of protein X3 of SARS-CoV Urbani / Binding of serum 6 to linear peptides of protein X4 of SARS-CoV Urbani / Binding of serum 37 to linear peptides of protein X4 of SARS-CoV Urbani / Binding of serum 37 to looped/cyclic peptides of protein X4 of SARS-CoV Urbani / Binding of serum 6 to linear peptides of protein X5 of SARS-CoV Urbani / Binding of serum 37 to linear peptides of protein X5 of SARS-CoV Urbani / Binding of serum 37 to looped/cyclic peptides of protein X5 of SARS-CoV Urbani / Binding of serum 6 to linear peptides of protein N of SARS-CoV Urbani / Binding of serum 37 to linear peptides of protein N of SARS-CoV Urbani / Binding of serum 6 to linear peptide (PEPSCAN-ELISA) / Binding of serum 1a to looped/cyclic peptides of protein N of SARS-CoV Urbani / Binding of serum 1b to looped/cyclic peptides of protein N of SARS-CoV Urbani / Binding of serum 2 to looped/cyclic peptides of protein N of SARS-CoV Urbani / Binding of serum 6 to looped/cyclic peptides of protein N of SARS-CoV Urbani / Binding of serum 37 to looped/cyclic peptides of protein N of SARS-CoV Urbani / Binding of serum 62 to looped/cyclic peptides of protein N of SARS-CoV Urbani / Binding of serum London to looped/cyclic peptides of protein N of SARS-CoV Urbani / Binding of serum SARS-green to looped/cyclic peptides of protein N of SARS-CoV Urbani: unit not given here
[3] = test system: rabbit serum obtained by immunizing a rabbit with the SARS-CoV strain Frankfurt 1; assay type: binding; parameters: Binding of a rabbit serum to linear peptides / Binding of a rabbit serum to looped peptides / Rabbit serum linear peptides / Rabbit serum looped peptides / Binding of a rabbit serum to linear peptides of protein N of SARS-CoV Urbani (Rabbit serum linear peptides) / Binding of a rabbit serum to looped/cyclic peptides of protein N of SARS-CoV Urbani (Rabbit serum looped peptides): unit not given here

## RGTIVTRPLMESELV
[1]
  Binding of Control Serum Blood-Bank to Looped peptides of the protein M of SARS-CoV Urbani: 0.6
  Binding of Control serum Blood-bank to linear peptides of the protein M of SARS-CoV Urbani: 0.7
  Binding of Control serum LUMC to linear peptides of the protein M of SARS-CoV Urbani: 0.4
  Binding of Control serum LUMC to looped peptides of the protein M of SARS-CoV Urbani: 0.8
[2]
  Binding of serum 1a to linear peptides of protein M of SARS-CoV Urbani: 0.9
  Binding of serum 1b to linear peptides of protein M of SARS-CoV Urbani: 0.6
  Binding of serum 2 to linear peptides of protein M of SARS-CoV Urbani: 0.6
  Binding of serum 6 to linear peptides of protein M of SARS-CoV Urbani: 0.4
  Binding of serum 37 to linear peptides of protein M of SARS-CoV Urbani: 0.9
  Binding of serum 62 to linear peptides of protein M of SARS-CoV Urbani: 0.9
  Binding of serum London to linear peptides of protein M of SARS-CoV Urbani: 0.3
  Binding of serum SARS-green to linear peptides of protein M of SARS-CoV Urbani: 0.3
  Binding of serum SARS-yellow to linear peptides of protein M of SARS-CoV Urbani: 0.1
  Recognition of the peptide by sera of SARS-CoV infected individuals, and form (linear, looped/cyclic) in which it is recognized: recognized in looped/cyclic form
[3]
  Rabbit serum linear peptides: 0.3
  Rabbit serum looped peptides: 0.3

## RIAIWNLDVIISSIV
[1]
  Binding of Control Serum Blood-Bank to Looped peptides of the protein X3 of SARS-CoV Urbani: 0.9
  Binding of Control serum Blood-bank to linear peptides of the protein X3 of SARS-CoV Urbani: 0.7
  Binding of Control serum LUMC to linear peptides of the protein X3 of SARS-CoV Urbani: 0.6
  Binding of Control serum LUMC to looped peptides of the protein X3 of SARS-CoV Urbani: 0.8
[2]
  Binding of serum 1a to linear peptides of protein X3 of SARS-CoV Urbani: 0.7
  Binding of serum 1a to looped/cyclic peptides of protein X3 of SARS-CoV Urbani: 0.8
  Binding of serum 1b to linear peptides of protein X3 of SARS-CoV Urbani: 0.3
  Binding of serum 1b to looped/cyclic peptides of protein X3 of SARS-CoV Urbani: 0.5
  Binding of serum 2 to linear peptides of protein X3 of SARS-CoV Urbani: 0.6
  Binding of serum 2 to looped/cyclic peptides of protein X3 of SARS-CoV Urbani: 0.8
  Binding of serum 6 to linear peptides of protein X3 of SARS-CoV Urbani: 0.5
  Binding of serum 6 to looped/cyclic peptides of protein X3 of SARS-CoV Urbani: 0.4
  Binding of serum 37 to linear peptides of protein X3 of SARS-CoV Urbani: 0.5
  Binding of serum 37 to looped/cyclic peptides of protein X3 of SARS-CoV Urbani: 0.6
  Binding of serum 62 to linear peptides of protein X3 of SARS-CoV Urbani: 0.7
  Binding of serum 62 to looped/cyclic peptides of protein X3 of SARS-CoV Urbani: 0.7
  Binding of serum London to linear peptides of protein X3 of SARS-CoV Urbani: 0.7
  Binding of serum London to looped/cyclic peptides of protein X3 of SARS-CoV Urbani: 0.2
  Binding of serum SARS-green to linear peptides of protein X3 of SARS-CoV Urbani: 0.3
  Binding of serum SARS-green to looped/cyclic peptides of protein X3 of SARS-CoV Urbani: 0.3
  Binding of serum SARS-yellow to linear peptides of protein X3 of SARS-CoV Urbani: 0.4
  Binding of serum SARS-yellow to looped/cyclic peptides of protein X3 of SARS-CoV Urbani: 1.0
[3]
  Rabbit serum linear peptides: 0.3
  Rabbit serum looped peptides: 0.4

## RIGNYKLNTDHAGSN
[1]
  Binding of Control Serum Blood-Bank to Looped peptides of the protein M of SARS-CoV Urbani: 0.8
  Binding of Control serum Blood-bank to linear peptides of the protein M of SARS-CoV Urbani: 0.9
  Binding of Control serum LUMC to linear peptides of the protein M of SARS-CoV Urbani: 0.6
  Binding of Control serum LUMC to looped peptides of the protein M of SARS-CoV Urbani: 0.8
[2]
  Binding of serum 1a to linear peptides of protein M of SARS-CoV Urbani: 0.7
  Binding of serum 1a to looped/cyclic peptides of protein M of SARS-CoV Urbani: 0.6
  Binding of serum 1b to linear peptides of protein M of SARS-CoV Urbani: 0.5
  Binding of serum 1b to looped/cyclic peptides of protein M of SARS-CoV Urbani: 0.5
  Binding of serum 2 to linear peptides of protein M of SARS-CoV Urbani: 0.6
  Binding of serum 2 to looped/cyclic peptides of protein M of SARS-CoV Urbani: 0.5
  Binding of serum 6 to linear peptides of protein M of SARS-CoV Urbani: 0.3
  Binding of serum 6 to looped/cyclic peptides of protein M of SARS-CoV Urbani: 0.7
  Binding of serum 37 to linear peptides of protein M of SARS-CoV Urbani: 0.5
  Binding of serum 37 to looped/cyclic peptides of protein M of SARS-CoV Urbani: 0.6
  Binding of serum 62 to linear peptides of protein M of SARS-CoV Urbani: 0.6
  Binding of serum 62 to looped/cyclic peptides of protein M of SARS-CoV Urbani: 0.6
  Binding of serum London to linear peptides of protein M of SARS-CoV Urbani: 0.6
  Binding of serum London to looped/cyclic peptides of protein M of SARS-CoV Urbani: 0.4
  Binding of serum SARS-green to linear peptides of protein M of SARS-CoV Urbani: 0.6
  Binding of serum SARS-green to looped/cyclic peptides of protein M of SARS-CoV Urbani: 0.2
  Binding of serum SARS-yellow to linear peptides of protein M of SARS-CoV Urbani: 0.1
  Binding of serum SARS-yellow to looped/cyclic peptides of protein M of SARS-CoV Urbani: 0.6
[3]
  Rabbit serum linear peptides: 0.1
  Rabbit serum looped peptides: 0.2
